In US7202265B2, “Indolinone combinatorial libraries and related products and methods for the treatment of disease” (Sugen, Inc., priority 1997, dated 2007):
Where two headings read alike, the source gives them in different places.

How the values were obtained:
FLK-1 receptor = target: T1, FLK-1 receptor (Mus musculus, UniProt P35918); assay: FLK-1 ELISA (catalytic activity of the FLK-1 receptor in FLK-1/NIH3T3 cells); format: cell-based; set-up: Flk Kinase % Inhibition: concentration or dose not given beside the values
T1 construct: expressed in transfected cells; host or cells: NIH3T3 C7#3 (FLK-1/NIH3T3)

EGFR = target: T2, EGFR (Homo sapiens, UniProt P00533); assay: EGFR ELISA assay (in vitro kinase activity, A431 cell lysate); format: biochemical; set-up: concentration or dose not given beside the values
T2 construct: Add 7 ug A431 cell lysate per well (EGFR source); endogenous in cells; host or cells: A431 cells (lysate)
Description: To provide a consistent method for measuring the in vitro kinase activity of the EGFR in an Enzyme-linked immunosorbent assay (Elisa).
Scope. The following protocol describes the procedures used to analyze protein tyrosine kinase activity on the EGFR in an Elisa. The procedure also describes the protocol for the initial screening of drugs for inhibition or activation of protein tyrosine kinase activity.
1. Coat Corning 96-well elisa plates with 0.5 ug per well 05-101 antibody. • Bring final volume to 100 ul per well with PBS. • Coat plates overnight at […].
2. Remove unbound 05-101 from wells by inverting plate to remove liquid. • Wash 1× with distilled H2O by filling wells • Pat the plate on a paper towel to remove excess liquid.
3. Block plates with 5% milk in PBS. • 150 ul per well. • Incubate plate 30 minutes while shaking on a microtiter plate shaker.
4. Wash plate 3× with dionized water, then once with TBST
5. Add 7 ug A431 cell lysate per well (EGFR source). • Add PBS to final volume of 100 ul per well • Incubate 30 minutes while shaking.
6. Wash as described in step 4.
8. […] It is best to add the ATP/MnCl2 with an 12 channel pipettor 1 row at a time leaving 20 seconds between each row so that the reaction may be stopped with EDTA exactly 5 minutes later (this depends on the number of plates being phosphorylated in one batch). Shake between each addition.
9. After 5 minutes, to stop reaction, add 16.5 ul of 200 mM EDTA pH 8.0 for 20 mM final in well, shaking continuously between each addition. This is done using the same timing method as above. After last row has received EDTA, shake plate an additional minute.
10. Wash 4× with deionized water, twice with TBST.
11. Add rabbit polyclonal anti-phosphotyrosine serum. • Dilute 1:3000 in TBST. • Add 100 ul per well. • Incubate 30–45 minutes while shaking.
12. Wash as described above in step 4.
13. Add BioSource anti-rabbit peroxidase conjugate antibody. • Dilute 1:2000 in TBST. • Add 100 ul per well. • Incubate 30 minutes while shaking.
14. Wash as described in step 4.
15. Add 100 ul of ABTS/H2O2 solution to well. • Incubate 5 to 10 minutes while shaking. • Remove bubbles
16. If necessary stop reaction with the addition of 100 ul of 0.2M HCl per well
17. Read assay on Dynatech MR7000 elisa reader. • Test Filter: 410 nM • Reference Filter: 630 nM

human MET = assay: MET biochemical kinase assay; set-up: concentration or dose not given beside the values
Summary of the method: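 MET captured from cell lysates onto plates coated with goat anti-rabbit Fc plus rabbit polyclonal anti-MET cytoplasmic-domain antibody; after washing, compounds added with kinase buffer containing ATP and divalent metal ions. Receptor tyrosine phosphorylation detected by HRP-conjugated anti-phosphotyrosine antibody, TMB colorimetric read-out.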

[1] = target: platelet derived growth factor protein kinase (PDGFR) (Homo sapiens, UniProt P09619); assay: PDGF-R ELISA; format: cell-based; set-up: concentration or dose not given beside the values
Excerpt: A PDGF-R ELISA is described in International Patent Publication No. WO 96/40116, published Dec. 19, 1996 by Tang et al.

[2] = Table 10, read-out: FLK Kinase IC50
[3] = Table 7, read-out: Activity 1C50 FLK Kinase

T1 sequence (P35918 20-1345): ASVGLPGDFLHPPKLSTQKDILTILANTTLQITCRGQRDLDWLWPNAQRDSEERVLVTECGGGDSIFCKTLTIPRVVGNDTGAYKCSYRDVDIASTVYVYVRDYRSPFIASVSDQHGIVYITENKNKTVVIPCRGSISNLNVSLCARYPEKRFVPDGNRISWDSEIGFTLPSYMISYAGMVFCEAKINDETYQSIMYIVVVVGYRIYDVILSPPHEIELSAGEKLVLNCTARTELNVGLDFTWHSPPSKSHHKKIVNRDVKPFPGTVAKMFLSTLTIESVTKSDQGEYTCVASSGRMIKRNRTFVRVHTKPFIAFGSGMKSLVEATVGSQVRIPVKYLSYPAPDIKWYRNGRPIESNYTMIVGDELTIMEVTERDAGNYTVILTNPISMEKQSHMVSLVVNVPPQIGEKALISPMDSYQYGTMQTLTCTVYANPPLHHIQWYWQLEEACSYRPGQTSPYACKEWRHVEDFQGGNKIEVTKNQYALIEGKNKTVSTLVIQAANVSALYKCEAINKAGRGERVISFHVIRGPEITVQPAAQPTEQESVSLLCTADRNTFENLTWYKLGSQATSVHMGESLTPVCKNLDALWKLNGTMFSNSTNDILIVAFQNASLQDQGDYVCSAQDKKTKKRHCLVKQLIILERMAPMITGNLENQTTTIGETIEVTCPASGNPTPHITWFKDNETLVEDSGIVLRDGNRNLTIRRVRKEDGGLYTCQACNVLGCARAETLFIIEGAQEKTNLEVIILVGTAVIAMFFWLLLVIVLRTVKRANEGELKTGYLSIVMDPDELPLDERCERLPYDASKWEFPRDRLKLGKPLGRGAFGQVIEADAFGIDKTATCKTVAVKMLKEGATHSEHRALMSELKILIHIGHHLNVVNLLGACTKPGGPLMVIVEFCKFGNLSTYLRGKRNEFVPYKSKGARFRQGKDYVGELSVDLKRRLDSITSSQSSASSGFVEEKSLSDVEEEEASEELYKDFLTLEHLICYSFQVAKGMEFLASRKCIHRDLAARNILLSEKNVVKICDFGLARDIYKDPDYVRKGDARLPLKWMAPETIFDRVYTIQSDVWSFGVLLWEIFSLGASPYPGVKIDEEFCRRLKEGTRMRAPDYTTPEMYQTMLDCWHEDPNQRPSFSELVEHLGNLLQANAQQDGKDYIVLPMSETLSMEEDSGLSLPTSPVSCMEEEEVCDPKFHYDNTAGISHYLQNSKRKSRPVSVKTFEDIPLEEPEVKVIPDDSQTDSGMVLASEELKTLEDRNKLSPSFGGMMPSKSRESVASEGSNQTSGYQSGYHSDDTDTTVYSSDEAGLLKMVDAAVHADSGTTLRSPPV
T2 sequence (P00533 25-1210): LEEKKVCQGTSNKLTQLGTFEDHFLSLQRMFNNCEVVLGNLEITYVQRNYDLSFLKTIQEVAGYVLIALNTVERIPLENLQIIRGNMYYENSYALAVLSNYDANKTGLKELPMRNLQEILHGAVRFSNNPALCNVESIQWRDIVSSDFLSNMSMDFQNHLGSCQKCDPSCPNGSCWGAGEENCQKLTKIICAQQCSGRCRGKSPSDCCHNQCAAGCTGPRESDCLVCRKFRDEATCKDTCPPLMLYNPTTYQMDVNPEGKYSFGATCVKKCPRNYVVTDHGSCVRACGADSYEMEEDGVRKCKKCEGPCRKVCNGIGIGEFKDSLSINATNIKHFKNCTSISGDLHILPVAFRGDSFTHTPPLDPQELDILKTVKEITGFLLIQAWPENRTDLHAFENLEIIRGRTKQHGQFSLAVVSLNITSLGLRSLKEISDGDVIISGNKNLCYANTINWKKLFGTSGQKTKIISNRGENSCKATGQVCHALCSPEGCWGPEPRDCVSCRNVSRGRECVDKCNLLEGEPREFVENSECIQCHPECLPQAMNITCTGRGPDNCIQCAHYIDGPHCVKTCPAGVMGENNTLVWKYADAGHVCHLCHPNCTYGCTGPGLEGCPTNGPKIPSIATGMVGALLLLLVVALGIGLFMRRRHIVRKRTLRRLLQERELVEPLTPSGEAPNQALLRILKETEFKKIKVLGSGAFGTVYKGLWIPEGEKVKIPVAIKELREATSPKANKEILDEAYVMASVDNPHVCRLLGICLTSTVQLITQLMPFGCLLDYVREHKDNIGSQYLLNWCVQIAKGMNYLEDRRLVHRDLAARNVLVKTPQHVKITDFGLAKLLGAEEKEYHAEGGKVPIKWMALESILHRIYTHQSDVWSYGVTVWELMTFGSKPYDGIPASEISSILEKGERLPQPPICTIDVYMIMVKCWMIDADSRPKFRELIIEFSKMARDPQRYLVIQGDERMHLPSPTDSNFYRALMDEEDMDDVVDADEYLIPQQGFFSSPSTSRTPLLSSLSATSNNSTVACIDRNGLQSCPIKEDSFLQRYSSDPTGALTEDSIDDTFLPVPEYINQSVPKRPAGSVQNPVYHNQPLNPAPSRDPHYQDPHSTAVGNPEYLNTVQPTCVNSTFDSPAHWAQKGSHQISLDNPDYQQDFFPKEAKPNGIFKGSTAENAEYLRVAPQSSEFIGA
platelet derived growth factor protein kinase (PDGFR), sequence (P09619 33-1106): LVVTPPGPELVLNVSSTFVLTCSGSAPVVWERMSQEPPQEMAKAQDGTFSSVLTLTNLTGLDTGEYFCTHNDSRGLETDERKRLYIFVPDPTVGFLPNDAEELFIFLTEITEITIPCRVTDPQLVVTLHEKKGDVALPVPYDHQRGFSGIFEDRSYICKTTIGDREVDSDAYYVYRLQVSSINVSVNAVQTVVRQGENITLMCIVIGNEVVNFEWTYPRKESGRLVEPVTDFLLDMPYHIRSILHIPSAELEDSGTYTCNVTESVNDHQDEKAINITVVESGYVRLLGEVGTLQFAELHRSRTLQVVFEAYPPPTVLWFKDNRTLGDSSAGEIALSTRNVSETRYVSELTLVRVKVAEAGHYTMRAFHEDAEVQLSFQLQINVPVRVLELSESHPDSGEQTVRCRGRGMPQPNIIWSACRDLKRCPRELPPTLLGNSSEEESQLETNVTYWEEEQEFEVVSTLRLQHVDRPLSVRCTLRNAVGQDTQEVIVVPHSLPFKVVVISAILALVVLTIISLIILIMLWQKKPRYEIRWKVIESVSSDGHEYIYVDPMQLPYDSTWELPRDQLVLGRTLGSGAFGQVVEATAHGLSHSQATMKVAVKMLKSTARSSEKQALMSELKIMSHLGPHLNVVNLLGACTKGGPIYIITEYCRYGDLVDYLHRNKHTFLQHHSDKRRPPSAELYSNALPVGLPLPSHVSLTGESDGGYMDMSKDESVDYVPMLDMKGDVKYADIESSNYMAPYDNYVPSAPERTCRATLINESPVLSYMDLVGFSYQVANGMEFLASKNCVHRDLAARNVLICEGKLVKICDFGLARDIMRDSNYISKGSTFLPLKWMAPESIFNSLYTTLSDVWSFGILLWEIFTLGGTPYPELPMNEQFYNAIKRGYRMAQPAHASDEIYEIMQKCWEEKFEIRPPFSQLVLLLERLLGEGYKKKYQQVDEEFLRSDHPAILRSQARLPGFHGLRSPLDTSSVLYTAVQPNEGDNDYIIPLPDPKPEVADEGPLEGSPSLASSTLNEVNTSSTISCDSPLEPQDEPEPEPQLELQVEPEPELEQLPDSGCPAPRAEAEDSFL

O=C1Nc2ccc(Cl)cc2/C1=C/c1ccc[nH]1
IC50 (FLK-1 receptor; [2]): 1.6 µM

Cc1[nH]c(/C=C2\C(=O)Nc3ccc(N)cc32)c(Br)c1Br
IC50 (FLK-1 receptor; [2]): 1.9 µM

CCc1cc(CC)c(/C=C2\C(=O)Nc3ccccc32)[nH]1
IC50 (FLK-1 receptor; [2]): 8.1 µM

CCc1cc(CC)c(/C=C2\C(=O)Nc3cccc(C)c32)[nH]1
IC50 (FLK-1 receptor; [2]): 17.3 µM

COc1ccc(/C=C2\C(=O)Nc3ccccc32)cc1O
IC50 (FLK-1 receptor; [2]): 2.9 µM

O=C1Nc2ccc(Cl)cc2/C1=C/c1ccc(O)c(Br)c1
IC50 (FLK-1 receptor; [2]): 5.2 µM

Cc1cc(Cl)cc2c1NC(=O)/C2=C\c1cc(O)c(O)c(Br)c1
IC50 (FLK-1 receptor; [2]): 18.5 µM

O=C1Nc2c(Br)cc(Cl)cc2/C1=C/c1cc(O)c(O)c(Br)c1
IC50 (FLK-1 receptor; [2]): 8.8 µM

CN(C)CCCOc1ccc(/C=C2\C(=O)Nc3ccccc32)cc1
IC50 (FLK-1 receptor; [2]): 4 µM

Cc1cccc2c1/C(=C/c1ccc(OCCCN(C)C)cc1)C(=O)N2
IC50 (FLK-1 receptor; [2]): 8 µM

CN(C)CCCOc1ccc(/C=C2\C(=O)Nc3ccc(Cl)cc32)cc1
IC50 (FLK-1 receptor; [2]): 11.5 µM

CN(C)CCCOc1ccc(/C=C2\C(=O)Nc3ccc(N)cc32)cc1
IC50 (FLK-1 receptor; [2]): 13.7 µM

COc1ccc(OC)c(/C=C2\C(=O)Nc3cccc(C)c32)c1
IC50 (FLK-1 receptor; [2]): 10.4 µM

COc1c(O)ccc(/C=C2\C(=O)Nc3ccc(Cl)cc32)c1[N+](=O)[O-]
IC50 (FLK-1 receptor; [2]): 10.7 µM

CC(C)(C)c1cc(/C=C2\C(=O)Nc3ccc([N+](=O)[O-])cc32)cc([N+](=O)[O-])c1OCc1ccccc1
IC50 (FLK-1 receptor; [2]): 16.4 µM

Cc1cccc2c1/C(=C/c1cc(C(C)C)c(OCc3ccccc3)c(C(C)C)c1)C(=O)N2
IC50 (FLK-1 receptor; [2]): 19.9 µM

CC(C)(C)c1ccc(/C=C2\C(=O)Nc3ccccc32)cc1
IC50 (FLK-1 receptor; [2]): 9.7 µM

CCc1ccc(/C=C2\C(=O)Nc3ccccc32)cc1
IC50 (FLK-1 receptor; [2]): 20.3 µM

Cc1cc(C)c2c(c1)NC(=O)/C2=C\c1c[nH]cn1
IC50 (FLK-1 receptor; [2]): 4.6 µM

O=C1Nc2ccc(Cl)cc2/C1=C/c1c[nH]cn1
IC50 (FLK-1 receptor; [2]): 5.6 µM

O=C1Nc2ccccc2/C1=C/c1ccc(N2CCCC2)cc1
IC50 (FLK-1 receptor; [2]): 9.9 µM

O=C1Nc2ccc(Cl)cc2/C1=C/c1ccc(N2CCCC2)cc1
IC50 (FLK-1 receptor; [2]): 12.3 µM

Nc1ccc2c(c1)/C(=C/c1ccc(N3CCCC3)cc1)C(=O)N2
IC50 (FLK-1 receptor; [2]): 18.4 µM

O=CN1CCN(c2ccc(/C=C3\C(=O)Nc4ccc(Cl)cc43)cc2)CC1
IC50 (FLK-1 receptor; [2]): 5.8 µM

O=CN1CCN(c2ccc(/C=C3\C(=O)Nc4ccccc43)cc2)CC1
IC50 (FLK-1 receptor; [2]): 6.2 µM

COc1cc2c(cc1OC)/C(=C/c1coc3ccc(C(C)C)cc3c1=O)C(=O)N2
IC50 (FLK-1 receptor; [2]): 17.1 µM

COc1cccc(O)c1C=C1C(=O)Nc2ccc(S(=O)(=O)N3CCOCC3)cc21 [10717/F10]
Flk Kinase % Inhibition (FLK-1 receptor): −4.4%

CCOC(=O)CCc1c(C(=O)OCC)[nH]c(C=C2C(=O)Nc3ccc(I)cc32)c1CC(=O)OCC [10718/B05]
Flk Kinase % Inhibition (FLK-1 receptor): 11.5% | Biochem EGFR % Inhibition (EGFR): 56.3% | Met Kinase % Inhibition (human MET): 76.0%

CNS(=O)(=O)c1ccc2c(c1)C(=Cc1ccc(F)cc1C(F)(F)F)C(=O)N2 [10719/D11]
Flk Kinase % Inhibition (FLK-1 receptor): −8.7% | Biochem EGFR % Inhibition (EGFR): −11.1% | Met Kinase % Inhibition (human MET): 12.8%

Cn1c(C=C2C(=O)Nc3ccc(I)cc32)nc2ccccc21 [10721/B02]
Flk Kinase % Inhibition (FLK-1 receptor): 19.5% | Biochem EGFR % Inhibition (EGFR): 58.6% | Met Kinase % Inhibition (human MET): 82.6%

Cn1cc(Cl)c(C=C2C(=O)Nc3ccc(I)cc32)n1 [10721/B03]
Flk Kinase % Inhibition (FLK-1 receptor): 19.9% | Biochem EGFR % Inhibition (EGFR): 38.9% | Met Kinase % Inhibition (human MET): 70.8%

Cc1cc(C=C2C(=O)Nc3ccc(I)cc32)sc1C [10721/B04]
Flk Kinase % Inhibition (FLK-1 receptor): 13.8% | Biochem EGFR % Inhibition (EGFR): 79.3% | Met Kinase % Inhibition (human MET): 93.1%

O=C1Nc2ccc(I)cc2C1=Cc1cc([N+](=O)[O-])cc(CCl)c1O [10721/B06]
Flk Kinase % Inhibition (FLK-1 receptor): 3.4% | Biochem EGFR % Inhibition (EGFR): 71.5% | Met Kinase % Inhibition (human MET): 92.4%

O=C1Nc2ccc(I)cc2C1=Cc1ccc(Cl)s1 [10721/B07]
Flk Kinase % Inhibition (FLK-1 receptor): 11.2% | Biochem EGFR % Inhibition (EGFR): 47.6% | Met Kinase % Inhibition (human MET): 47.1%

Cc1cc(C=C2C(=O)Nc3ccc(I)cc32)cc(C)c1O [10722/B07]
Flk Kinase % Inhibition (FLK-1 receptor): 6.6% | PDGF Kinase % Inhibition [1]: 20.9% | Biochem EGFR % Inhibition (EGFR): 6.2% | Met Kinase % Inhibition (human MET): 48.2%

O=C1Nc2ccc(I)cc2C1=Cc1csc([N+](=O)[O-])c1 [10722/B09]
Flk Kinase % Inhibition (FLK-1 receptor): 8.7% | PDGF Kinase % Inhibition [1]: 14.6% | Biochem EGFR % Inhibition (EGFR): 7.8% | Met Kinase % Inhibition (human MET): 59.7%

O=C1Nc2ccc(CCCl)cc2C1=Cc1cccc(Br)c1 [10723/G10]
Flk Kinase % Inhibition (FLK-1 receptor): 3.5%

CN(C)c1ccc(C=C2C(=O)Nc3ccc(I)cc32)c2ccccc12 [10724/B02]
Flk Kinase % Inhibition (FLK-1 receptor): −6.2% | PDGF Kinase % Inhibition [1]: −21.5% | Biochem EGFR % Inhibition (EGFR): 34.9% | Met Kinase % Inhibition (human MET): 48.8%

O=C1Nc2ccc(I)cc2C1=Cc1ccc([N+](=O)[O-])c(O)c1 [10724/B04]
Flk Kinase % Inhibition (FLK-1 receptor): −20.5% | PDGF Kinase % Inhibition [1]: 42.5% | Biochem EGFR % Inhibition (EGFR): 50.2% | Met Kinase % Inhibition (human MET): 81.2%

O=C1Nc2ccc(I)cc2C1=Cc1cc2c3c(c1O)CCCN3CCC2 [10724/B05]
Flk Kinase % Inhibition (FLK-1 receptor): −2.2% | PDGF Kinase % Inhibition [1]: 12.6% | Biochem EGFR % Inhibition (EGFR): 21.2% | Met Kinase % Inhibition (human MET): 45.6%

Cc1ccc(C=C2C(=O)Nc3c(Br)cc(Br)cc32)o1 [10725/A04]
Flk Kinase % Inhibition (FLK-1 receptor): −8.6% | PDGF Kinase % Inhibition [1]: −3.2% | Biochem EGFR % Inhibition (EGFR): 26.2% | Met Kinase % Inhibition (human MET): 55.3%

Cc1ccc(C=C2C(=O)Nc3ccc(I)cc32)o1 [10725/B04]
Flk Kinase % Inhibition (FLK-1 receptor): 1.1% | PDGF Kinase % Inhibition [1]: 9.3% | Biochem EGFR % Inhibition (EGFR): 76.9% | Met Kinase % Inhibition (human MET): 90.4%

CNS(=O)(=O)c1ccc2c(c1)C(=Cc1cccc(C#N)c1)C(=O)N2 [10727/D08]
PDGF Kinase % Inhibition [1]: 5.0% | Met Kinase % Inhibition (human MET): 8.5%

O=C1Nc2ccc(I)cc2C1=Cc1ccc2c(c1)Cc1ccccc1-2 [10728/B06]
Flk Kinase % Inhibition (FLK-1 receptor): 4.7% | PDGF Kinase % Inhibition [1]: 7.6% | Biochem EGFR % Inhibition (EGFR): 38.1% | Met Kinase % Inhibition (human MET): 56.0%

CNS(=O)(=O)c1ccc2c(c1)C(=Cc1c(OC)ccc3ccccc13)C(=O)N2 [10729/D02]
Biochem EGFR % Inhibition (EGFR): 5.7%

COc1c(I)cc(C=C2C(=O)Nc3ccc(S(=O)(=O)N4CCOCC4)cc32)cc1C(C)(C)C [10732/F11]
Flk Kinase % Inhibition (FLK-1 receptor): 14.1% | Met Kinase % Inhibition (human MET): 65.1%

O=C1Nc2ccccc2/C1=C\c1cc2c([nH]1)CCCC2 [compound 0128]
IC50 (FLK-1 receptor; [3]): 1.7 µM

O=C1Nc2ccc(Br)cc2/C1=C\c1cc2c([nH]1)CCCC2 [compound 0129]
IC50 (FLK-1 receptor; [3]): 19.6 µM
